Measured values reported in paper PMC3246188, “Inhibition of endothelial- and neuronal-type, but not inducible-type, nitric oxide synthase by the oxidized cholesterol metabolite secosterol aldehyde: Implications for vascular and neurodegenerative diseases” (Journal of Clinical Biochemistry and Nutrition, 2011).
Read-outs that look alike come from different tables or passages of the source.

Columns and labels:
[1] = molecular target: T1, eNOS (Bos taurus, UniProt P29473); test: NOS activity assay, conversion of L-[14C(U)]-arginine to L-[14C(U)]-citrulline, recombinant eNOS; type: biochemical, bovine; details: for Effect on eNOS activity: up to the highest concentration (100 µM)
T1 construct: purchased Sigma Chem. (St. Louis, MO)
T1 sequence (P29473 2-1205 limits assumed): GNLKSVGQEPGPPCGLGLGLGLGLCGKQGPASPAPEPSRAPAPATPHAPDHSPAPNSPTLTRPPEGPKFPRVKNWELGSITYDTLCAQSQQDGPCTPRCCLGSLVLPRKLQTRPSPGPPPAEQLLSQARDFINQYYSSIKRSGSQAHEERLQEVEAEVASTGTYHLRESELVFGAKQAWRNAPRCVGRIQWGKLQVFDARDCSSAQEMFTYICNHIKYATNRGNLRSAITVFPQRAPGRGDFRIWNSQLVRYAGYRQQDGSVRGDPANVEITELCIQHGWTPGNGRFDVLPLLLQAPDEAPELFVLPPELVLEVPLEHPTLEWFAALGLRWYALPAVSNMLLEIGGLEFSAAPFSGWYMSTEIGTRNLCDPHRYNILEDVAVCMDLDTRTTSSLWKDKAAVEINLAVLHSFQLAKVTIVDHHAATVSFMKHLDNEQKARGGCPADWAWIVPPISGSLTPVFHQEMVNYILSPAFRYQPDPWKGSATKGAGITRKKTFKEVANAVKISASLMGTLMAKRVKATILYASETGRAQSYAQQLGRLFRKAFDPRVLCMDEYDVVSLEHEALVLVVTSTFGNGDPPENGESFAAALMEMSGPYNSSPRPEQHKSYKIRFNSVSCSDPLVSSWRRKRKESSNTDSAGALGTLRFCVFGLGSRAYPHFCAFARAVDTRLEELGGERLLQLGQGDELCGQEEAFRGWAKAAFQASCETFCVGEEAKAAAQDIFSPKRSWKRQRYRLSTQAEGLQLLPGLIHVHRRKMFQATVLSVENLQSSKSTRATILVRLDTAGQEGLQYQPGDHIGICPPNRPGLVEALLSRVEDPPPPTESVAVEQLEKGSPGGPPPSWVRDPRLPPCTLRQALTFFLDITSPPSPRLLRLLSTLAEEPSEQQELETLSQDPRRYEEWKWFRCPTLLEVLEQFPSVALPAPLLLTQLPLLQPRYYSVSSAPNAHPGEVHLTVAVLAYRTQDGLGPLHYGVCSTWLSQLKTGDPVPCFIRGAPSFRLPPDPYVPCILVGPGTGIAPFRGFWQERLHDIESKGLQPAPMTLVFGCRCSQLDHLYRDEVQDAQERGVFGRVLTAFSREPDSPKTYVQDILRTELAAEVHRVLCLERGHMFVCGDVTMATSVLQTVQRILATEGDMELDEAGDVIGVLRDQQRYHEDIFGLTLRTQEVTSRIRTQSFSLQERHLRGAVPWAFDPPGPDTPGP
From the text: (§1) Secosterol-A and -B were synthesized according to Wentworth et al.([1]) L-Arginine, nicotinamide adenine dinucleotide phosphate reduced form (NADPH), flavin adenine dinucleotide (FAD), flavin mononucleotide (FMN), (6R)-5,6,7,8-tetrahydrobiopterin (BH4), recombinant eNOS (from bovine), iNOS (from mouse macrophages), and Dowex® AG50W-X8 cation-exchange resin (mesh size, 100–200) were all purchased from Sigma Chem. (St. Louis, MO). Ultima Gold XR scintillation liquid was from PerkinElmer (Shelton, CA). Recombinant nNOS (from rat) was obtained from Cayman Chem. All other chemicals were obtained from Wako Pure Chem. Ind., Osaka, Japan.
(§2) The NOS activities were determined by monitoring the conversion of L-[^14C(U)]-arginine (Moravek, Brea, CA) to L-[^14C(U)]-citrulline as previously described.([28]) Recombinant enzymes of three isoforms of NOS (specific activity: eNOS 0.03, nNOS 2.9, iNOS 0.62 units/mg protein) (10 µl) were added to a reaction mixture (final volume of 100 µl) consisting of 50 mM HEPES buffer (pH 7.4), 1 mM NADPH, 4 µM FAD, 4 µM FMN, 10 µM BH4, 1 mg/L (60 µM) calmodulin (CaM), 2.5 mM CaCl2, 50 µM L-arginine, 0.5 µCi/ml of L-[^14C(U)]-arginine (specific activity: 8.14–11.1 GBq/mmol) and varying concentrations of the test compound. After incubation for 30 min at 37°C, the reactions were terminated by the addition of 0.5 ml of 20 mM HEPES (pH 5.5) containing 2 mM EDTA and 2 mM EGTA. Samples were passed through a 1 ml column of Dowex AG50W-X8 (Na^+-form) to remove unconverted L-[^14C(U)]-arginine. L-[^14C(U)]-Citrulline was eluted twice with 1 ml of distilled water, and the eluted fractions mixed with 10 ml of cocktail (Ultima Gold XR) were quantified using a liquid scintillation counter. A reaction mixture containing L-[^14C(U)]-arginine without the enzyme was incubated as a control to determine background counts. The effects of oxidized cholesterol metabolites on the NOSs activities were examined in the presence and absence of the test compounds at various concentrations, which were prepared in 5% ethanol and a 10 µl aliquot was added into the reaction mixture.
(§3) Initial rates of citrulline formation were obtained by linear leastsquares data fitting of actual experimental data. Apparent Km and Vmax values at each inhibitor concentration were obtained from nonlinear regression fitting using the Michaelis-Menten equation. Ki and Kiʹ were obtained from the X-axis intercepts of plots of measured Km/Vmax and 1/Vmax vs inhibitor concentration, respectively.

[2] = molecular target: T2, iNOS (Mus musculus, UniProt P29477); test: NOS activity assay, conversion of L-[14C(U)]-arginine to L-[14C(U)]-citrulline, recombinant iNOS; type: biochemical; details: tested 1–100 µM, highest concentration 100 µM
T2 construct: purchased Sigma Chem. (St. Louis, MO)
From the text: as §1, §2

[3] = molecular target: bovine serum albumin (Bos taurus, UniProt P02769); test: Reaction with proteins to form the adduct (preliminary, unpublished data)
Sequence of bovine serum albumin (P02769 25-607): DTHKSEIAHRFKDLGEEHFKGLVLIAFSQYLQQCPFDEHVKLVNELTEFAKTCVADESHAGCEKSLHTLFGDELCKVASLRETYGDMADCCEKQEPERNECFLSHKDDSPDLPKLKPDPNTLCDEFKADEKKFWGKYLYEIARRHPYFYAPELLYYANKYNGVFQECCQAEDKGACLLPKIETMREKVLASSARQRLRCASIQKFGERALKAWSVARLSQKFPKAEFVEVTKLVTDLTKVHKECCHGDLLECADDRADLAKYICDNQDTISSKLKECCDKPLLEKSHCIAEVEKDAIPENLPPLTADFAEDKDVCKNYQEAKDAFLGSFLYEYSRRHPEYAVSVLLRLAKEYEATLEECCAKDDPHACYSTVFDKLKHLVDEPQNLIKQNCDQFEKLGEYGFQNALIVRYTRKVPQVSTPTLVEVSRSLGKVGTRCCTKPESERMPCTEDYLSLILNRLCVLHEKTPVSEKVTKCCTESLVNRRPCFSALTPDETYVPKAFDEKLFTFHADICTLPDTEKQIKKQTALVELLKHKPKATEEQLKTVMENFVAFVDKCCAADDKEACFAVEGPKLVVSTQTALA

[4] = molecular target: T3, nNOS (Rattus norvegicus, UniProt P29476); test: NOS activity assay, conversion of L-[14C(U)]-arginine to L-[14C(U)]-citrulline, recombinant nNOS; type: biochemical; details: for Pattern of inhibition of nNOS activity: Lineweaver-Burke plot; for Effect on nNOS activity: up to the highest concentration (100 µM)
T3 construct: purchased Cayman Chem
T3 sequence (P29476 whole entry): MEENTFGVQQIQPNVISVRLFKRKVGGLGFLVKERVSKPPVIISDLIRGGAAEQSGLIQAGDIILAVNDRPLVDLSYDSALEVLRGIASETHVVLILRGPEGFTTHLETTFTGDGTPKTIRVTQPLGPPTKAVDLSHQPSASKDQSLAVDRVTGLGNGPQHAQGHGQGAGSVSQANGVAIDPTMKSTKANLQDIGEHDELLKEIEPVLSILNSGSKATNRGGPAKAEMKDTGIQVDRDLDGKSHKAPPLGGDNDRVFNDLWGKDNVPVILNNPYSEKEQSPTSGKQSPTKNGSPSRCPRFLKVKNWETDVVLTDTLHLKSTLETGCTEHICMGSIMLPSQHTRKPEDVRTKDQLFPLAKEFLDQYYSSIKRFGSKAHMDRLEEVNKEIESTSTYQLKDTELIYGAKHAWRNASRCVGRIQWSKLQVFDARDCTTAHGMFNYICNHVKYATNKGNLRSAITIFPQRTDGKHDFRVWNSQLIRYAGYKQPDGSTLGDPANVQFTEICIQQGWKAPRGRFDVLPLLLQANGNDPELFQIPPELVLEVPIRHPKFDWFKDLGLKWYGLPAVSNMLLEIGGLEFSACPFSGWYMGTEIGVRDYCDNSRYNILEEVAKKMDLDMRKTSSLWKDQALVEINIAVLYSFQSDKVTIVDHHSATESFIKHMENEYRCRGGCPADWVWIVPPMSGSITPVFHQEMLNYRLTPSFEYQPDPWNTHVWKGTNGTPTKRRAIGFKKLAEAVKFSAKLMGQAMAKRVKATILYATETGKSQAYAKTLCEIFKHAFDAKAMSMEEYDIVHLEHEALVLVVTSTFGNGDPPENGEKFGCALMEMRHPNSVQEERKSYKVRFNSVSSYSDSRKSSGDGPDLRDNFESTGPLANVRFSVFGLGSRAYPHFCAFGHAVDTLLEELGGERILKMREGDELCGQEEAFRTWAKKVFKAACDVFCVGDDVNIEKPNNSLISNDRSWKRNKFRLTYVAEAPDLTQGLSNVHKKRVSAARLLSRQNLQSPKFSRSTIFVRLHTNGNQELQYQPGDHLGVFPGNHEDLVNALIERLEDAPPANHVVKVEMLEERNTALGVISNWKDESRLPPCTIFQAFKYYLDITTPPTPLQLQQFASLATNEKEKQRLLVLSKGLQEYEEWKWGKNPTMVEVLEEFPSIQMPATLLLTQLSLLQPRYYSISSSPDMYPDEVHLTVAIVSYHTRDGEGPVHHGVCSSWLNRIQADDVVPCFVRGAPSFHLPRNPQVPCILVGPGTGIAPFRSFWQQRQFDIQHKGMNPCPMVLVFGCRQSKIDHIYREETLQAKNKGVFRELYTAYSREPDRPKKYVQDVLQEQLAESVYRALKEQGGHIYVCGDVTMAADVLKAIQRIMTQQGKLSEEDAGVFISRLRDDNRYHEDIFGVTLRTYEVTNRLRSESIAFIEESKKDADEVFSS
From the text: as §1, §2, §3

[5] = varying L-arginine, read-out: Ki(app) for the catalytic site

CC(C)CCC[C@@H](C)[C@H]1CC[C@H]2[C@H](CC=O)[C@@H]([C@@]3(C)CC[C@H](O)CC3=O)CC[C@]12C [secosterol-A, 3β-hydroxy-5-oxo-5,6-secocholestan-6-al]
eNOS activity, % of the activity without secosterol-A ([1]; 100 µM secosterol-A, 10 µM BH4): 41% | Restoration of inhibited eNOS activity by added BH4 ([1]; 100 µM secosterol-A, 50 and 100 µM BH4): did not restore | Restoration of inhibited eNOS activity by excess CaM ([1]; 100 µM secosterol-A, CaM 60–600 µM): did not restore | Vmax(app)ʹ ([1]; L-arginine as substrate, in the presence of 50 µM secosterol-A (1400 without inhibitor)): 480 µmol·L^−1·30 min^−1 | IC50 ([1]; recombinant bovine eNOS, 50 µM L-arginine, 30 min at 37°C): 50 ± 5 µM | Ki [1, 5]: 50 µM | Effect on iNOS activity [2]: did not affect | Reactivity with proteins to form the adduct [3]: more easily than secosterol-B | nNOS activity, % of the activity without secosterol-A ([4]; 40 µM secosterol-A, 10 µM BH4): 23% | nNOS activity compared to the activity without secosterol-A ([4]; 40 µM secosterol-A, 60 µM CaM): 22% | Restoration of inhibited nNOS activity by added BH4 ([4]; 40 µM secosterol-A, 50 and 100 µM BH4): did not restore | nNOS activity compared to the activity without secosterol-A ([4]; 40 µM secosterol-A, excess CaM 300 µM): 63% | nNOS activity compared to the activity without secosterol-A ([4]; 40 µM secosterol-A, excess CaM 600 µM): 86% | Vmax(app)ʹ ([4]; L-arginine as substrate, in the presence of 40 µM secosterol-A (10000 without inhibitor)): 909 µmol·L^−1·30 min^−1 | IC50 ([4]; recombinant rat nNOS, 50 µM L-arginine, 30 min at 37°C): 22 ± 1 µM | Pattern of inhibition of nNOS activity ([4]; varying CaM): noncompetitive or a mixed-type | Ki ([4]; varying CaM, read-out: Kiʹ for the allosteric site (CaM-dependent nNOS activity)): 30 µM | Pattern of inhibition of nNOS activity ([4]; varying L-arginine): noncompetitive or a mixed-type | Ki [4, 5]: 10 µM | Ki ([4]; varying L-arginine, read-out: Ki(app)ʹ for the allosteric site): 1 µM

CC(C)CCC[C@@H](C)[C@H]1CC[C@H]2[C@@H]3[C@@H](C=O)[C@]4(O)C[C@@H](O)CC[C@]4(C)[C@H]3CC[C@]12C [secosterol-B, 3β-hydroxy-5β-hydroxy-B-norcholestane-6β-carboxaldehyde]
Effect on eNOS activity [1]: do not affect | Effect on iNOS activity [2]: do not affect | Effect on nNOS activity [4]: do not affect

C[C@H](CCCC(C)(C)O)[C@H]1CC[C@H]2[C@@H]3CC=C4C[C@@H](O)CC[C@]4(C)[C@H]3CC[C@]12C [25-hydroxycholesterol]
Effect on eNOS activity [1]: do not affect | Effect on iNOS activity [2]: do not affect | Effect on nNOS activity [4]: do not affect

CC(C)CCC[C@@H](C)[C@H]1CC[C@H]2[C@@H]3C[C@H]4O[C@]45C[C@@H](O)CC[C@]5(C)[C@H]3CC[C@]12C [5β,6β-epoxycholesterol]
Effect on eNOS activity [1]: do not affect | Effect on iNOS activity [2]: do not affect | Effect on nNOS activity [4]: do not affect

CC(C)CCC[C@@H](C)[C@H]1CC[C@H]2[C@@H]3C(=O)C=C4C[C@@H](O)CC[C@]4(C)[C@H]3CC[C@]12C [7-ketocholesterol, 3β-hydroxy-5-cholesten-7-one]
Effect on eNOS activity [1]: do not affect | Effect on iNOS activity [2]: do not affect | Effect on nNOS activity [4]: do not affect

CC(C)CCC[C@@H](C)[C@H]1CC[C@H]2[C@@H]3CC=C4C[C@@H](O)CC[C@]4(C)[C@H]3CC[C@]12C [cholesterol]
Effect on eNOS activity [1]: do not affect | Effect on eNOS activity ([1]; listed as Cholesterol): no inhibitory effects | Effect on iNOS activity [2]: do not affect | Effect on iNOS activity ([2]; listed as Cholesterol): no inhibitory effects | Effect on nNOS activity [4]: do not affect | Effect on nNOS activity ([4]; listed as Cholesterol): no inhibitory effects
